# Experimental data from patent US9737525B2, “Small molecule activators of NRF2 pathway” (The General Hospital Corporation, priority 2013, dated 2017).
# Counter-ions that a name gives are not always drawn.
# Assays:
# [1] = molecular target: human recombinant SIRT2 deacetylase (Homo sapiens (Human), UniProt Q8IXJ6); experiment: Sirtuin biochemical deacetylation assay, SIRT2
# Experimental: Modulation of sirtuin activity by compounds was assessed using the Flour de Lys fluorescent biochemical assay in a 96-well format as described (Outeiro et al., 2007). The deacetylation reaction was performed at 37° C. for an hour in the presence of human recombinant enzymes: SIRT1 (BioMol-SE-239) 1 unit/per reaction, SIRT2 (BioMol-SE-251) 5 units/per reaction, or SIRT3 (BioMol-SE-270) 5 units/per reaction, compound of interest, standard buffer, 50 μM substrate, and 500 μM NAD^+ according to the manufacturer's protocol. […]
# [2] = tested on: NQO1; experiment: Quantitative NQO1 inducer bioassay in Hepa1c1c7 cells; assay type: cell-based, murine; settings: for EC (2-fold NQO1 activity): Mus musculus, Hepa-1c1c7, Table 3, Concentration which Doubles the specific activity of NQO1, read-out: NQD1 CD; for EC (2-fold NQO1 activity) / CD value (Concentration which Doubles the specific activity of NQO1): 48 hr exposure; for CD value (Concentration which Doubles the specific activity of NQO1): Hepa1c1c7 cells; for Effect of GSH pre-incubation on NQO1 inducer potency: 1 mM GSH at 37° C. for 30 min before cell treatment
# Experimental: Cells grown in 96-well plates were exposed to serial dilutions of each compound for 48 hr, and the NQO1 enzyme activity was determined in cell lysates. Results are shown as average values of 8 replicate wells. The standard deviation in each case was less than 5%.
# Next, using a quantitative NQO1 inducer bioassay in murine Hepa1c1c7 cells and the CD value (Concentration which Doubles the specific activity of NQO1) as a measure of potency (see Table 2), the activities of the MIND4 analogs were tested and ranked.
# Inducer potency was quantified by use of the NQO1 bioassay in Hepa1c1c7 cells as described [Prochaska, 1988]. To examine the effect of GSH on inducer potency, compounds were incubated in cell culture medium containing 1 mM GSH at 37° C. for 30 min before cell treatment.
# [3] = tested on: NRF2/KEAP1 in MEFs; experiment: NQO1 and NRF2 levels in mouse embryonic fibroblasts (MEFs), western blot; assay type: cell-based; settings: wild-type MEFs, 5 hr exposure
# Experimental: Mouse embryonic fibroblasts (MEFs) from wild-type (WT), NRF2-knockout (NRF2-KO) or KEAP1-knockout (KEAP1-KO) mice, were cultured in plastic dishes (Invitrogen) coated for 30 min with 0.1% (w/v) gelatin before use. The cell culture medium was Iscoves Modified Dulbecco's Medium (with L-glutamine) supplemented with human recombinant epidermal growth factor (10 ng/mL), 1× insulin/transferrin/selenium, and 10% (v/v) heat-inactivated FBS, all from Invitrogen. Cells were maintained at 5% CO2 in air at 37° C. For experiments, cells (250,000 per well) were grown for 24 hr on 6-well plates, and then treated with solvent control (0.1% DMSO, v/v) or compounds for either 5 hr or 24 hr. For western blot analysis, cells were washed twice with ice-cold phosphate buffered saline (PBS) and lysed in 150 μl of RIPA buffer (50 mM Tris-Cl pH 7.5, 150 mM NaCl, 0.5% sodium deoxycholate, 1% NP-40, 0.1% SDS and 1 mM EDTA), containing 1 protease inhibitor cocktail tablet (Roche) per 10 ml of buffer. Cell debris were removed by centrifugation at 16,300×g for […] at 4° C., and protein concentrations were determined by the BCA assay (Thermo). Proteins were resolved by SDS/PAGE, transferred to immobilon-P membranes, and probed with specific antibodies against NQO1 (1:1000) or NRF2 (1:1000). Equal loading was confirmed by probing the blots with an antibody against β-actin (mouse monoclonal, 1:10000), from Sigma, Dorset, United Kingdom.
# For nuclear-cytoplasmic separation, WT MEFs (500,000 per dish) were grown for 24 hr on 6-cm plates, and then treated with solvent control (0.1% DMSO, v/v) or 0.5 μM MIND4-17. At the end of each treatment time, cells were placed on ice and washed twice with ice-cold PBS and subsequently lysed in buffer A [10 mM KCl, 5 mM MgCl2, 50 mM Tris-HCl (pH 7.5), 0.5% Nonidet P-40 (Roche), 1 mM dithioretitol (DTT) (Sigma), containing one protease inhibitor tablet and one phosphatase inhibitor tablet (both from Roche) per each 10 ml of buffer]. The lysates were subjected to centrifugation (Spectrafuge 24D, Labnet) at 1,000×g for 5 min at 4° C. The supernatant (cytoplasmic fraction) was transferred to a fresh Eppendorf tube. The pellet (nuclear fraction) was washed three times in buffer A before being dissolved in buffer B [2% SDS, 150 mM NaCl, 65 mM Tris-HCl (pH 8.0)] and sonicated for 30 sec. Finally, the lysates were subjected to western blot analysis. The blots were probed with antibodies against GAPDH (rabbit polyclonal, 1:5000) and Lamin A/C (rabbit polyclonal, 1:1000, Gene Tex, Calif., United States of America) to confirm fraction purity and equal protein loading.
# [4] = tested on: NRF2-responsive proteins NQO1 and GCLM; experiment: Induction of NQO1 and GCLM proteins in differentiated ST14A cells (immunoblotting); assay type: cell-based, rat; settings: differentiated HD mutant and wild type ST14A cells, 24 hours
# Experimental: (§1) To assess protein levels, cell extracts were prepared from cells washed with PBS and lysed with buffer containing 2% SDS, Complete EDTA-free Protease Inhibitor Cocktail (Roche) and 1 mM phenylmethylsulfonyl fluoride. To prepare brain extracts for analysis, frozen mouse cortical tissues were homogenized in PBS containing protease inhibitors with an Kontes Pellet Pestle (Kimble/Kontes). They were later sonicated and lysed overnight at 4° C. in 2× volume of lysis buffer containing 2% SDS and protease inhibitors. Protein concentrations in ST14A cell extracts and homogenized cortical tissues were evaluated using a BCA analysis kit and normalized. Samples were prepared in a SDS buffer containing DTT and separated on bis-acrylamide protein gels via electrophoresis and transferred onto a 0.2 μm PVDF membrane). Membranes were probed for NQO1 (Sigma N5288, 1:1,000), GCLM, (Abcam ab126704, 1:800), SIRT2 (Sigma S8447, 1:2,500), histone H3 (Cell Signaling 4499, 1:2,000), acetylated H3 (K56) (Millipore 04-1135, 1:500), TNFα (Abcam ab1793, 1:1,500), GADPH (Millipore MAB374, 1:10,000), actin (Sigma A2066, 1:1250), α-tubulin (Sigma T6074, 1:20,000), and acetylated α-tubulin (Sigma T6793, 1:2,500) overnight in 5% milk in PBST at 4° C. on a rocker. Membranes were thrice washed in PBST for 15 min on a shaker and incubated in either an anti-rabbit-HRP (Bio-Rad 170-5046, 1:10,000) or anti-mouse-HRP (Sigma A3682, 1:4,000) secondary solution as appropriate in 3% milk in PBST for 1 hr at room temperature on a rocker. After four washes of 15 min in PBST on a shaker, blots were visualized using SuperSignal West Pico Chemiluminescent Substrate (Pierce 34080) or SuperSignal West Dura Extended Duration Substrate (Thermo 34075) and exposed on Scientific Imaging Film (Kodak 864 6770).
# Compound bioactivity was tested in the rat embryonic striatal cell lines ST14A, which stably express either a mutant expanded repeat (128Q) or wild type (26Q) 546 amino acid huntingtin (HTT) fragment (a generous gift of E. Cattaneo) (Ehrlich et al., 2001) ST14A cells were propagated at 33° C. in the presence of serum. To induce neuronal differentiation, cells were serum deprived and cultured at 37° C. in the presence of N2 supplement. Cells were treated with compounds concurrently with induction of neuronal differentiation for 24 hours, as described (Quinti et al., 2010).
# The NRF2 activation properties of further MIND4 structural analogs with variable potencies of SIRT2 inhibition were tested as described previously (see Table 1) Changes in expression of the canonical NRF2-responsive proteins NQO1 and GCLM, the transcription of which was induced by MIND4, was selected as a readout of pathway activation. Protein levels of NQO1 and GCLM were examined by immunoblotting in compound treated mutant HD and wild-type ST14A cells. […] This hypothesis was tested using a second panel of MIND4 analogs (see Table 3).
# [5] = tested on: α-tubulin K40 and histone H3 acetylation; experiment: Acetylation of SIRT2 substrates in wild type primary cortical neurons; assay type: cell-based, mouse; set-up: α-Tubulin acetylation: dose or concentration left out as unconfirmed; settings: primary neurons
# Experimental: as §1
# Based upon the robust neuroprotection observed in HD model systems expressing both mutant HTT fragments and full-length mutant HTT, verification of the bioactivity of MIND4 as SIRT2 inhibitor in primary neurons was sought. […]
# Sequence of human recombinant SIRT2 deacetylase (Q8IXJ6 whole entry): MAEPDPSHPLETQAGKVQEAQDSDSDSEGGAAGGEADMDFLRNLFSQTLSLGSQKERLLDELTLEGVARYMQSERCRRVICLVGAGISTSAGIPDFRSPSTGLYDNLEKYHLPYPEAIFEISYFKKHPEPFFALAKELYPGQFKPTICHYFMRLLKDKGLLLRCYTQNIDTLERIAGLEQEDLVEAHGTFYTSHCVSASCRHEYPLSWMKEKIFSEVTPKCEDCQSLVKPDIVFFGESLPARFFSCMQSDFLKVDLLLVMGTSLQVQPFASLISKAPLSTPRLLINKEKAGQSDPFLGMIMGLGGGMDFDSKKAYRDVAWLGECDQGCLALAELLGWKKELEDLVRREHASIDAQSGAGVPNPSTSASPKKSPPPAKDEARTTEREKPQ
SMILES,IC50 ([1]; Table 1),IC50 ([1]; Table 3),EC (2-fold NQO1 activity) [2],also measured
c1ccc(CSc2nnc(COc3cccc4ccccc34)n2Cc2ccccc2)cc1 [MIND4-22],6 µM,–,–,–
O=[N+]([O-])c1ccc(Sc2nnc(Cc3ccccc3)n2-c2ccccc2)nc1 [MIND4-17-15],–,> 50 µM,0.3 µM,–
"C[S+]([O-])CCCCN=C=S (stereo not drawn) [sulforaphane, reference compound]",–,–,–,CD value (Concentration which Doubles the specific activity of NQO1) [2]: 0.18 µM; Accumulation of total NRF2 protein [3]: readily detectable
O=[N+]([O-])c1ccc(CSc2nnc(COc3ccccc3)n2-c2ccccc2)cc1 [MIND4-21],10 µM,10 µM,–,–
O=[N+]([O-])c1ccc(Sc2nnc(-c3ccccc3)n2-c2ccccc2)c2ncccc12 [MIND4A],–,7.5 µM,1 µM,SIRT2 inhibition ([1]; dose-response): lower potency of SIRT2 inhibition; Effect of GSH pre-incubation on NQO1 inducer potency [2]: much more modest; CD value (Concentration which Doubles the specific activity of NQO1) [2]: 1 µM; Induction of NRF2-responsive proteins NQO1 and GCLM [4]: higher potency induction
O=[N+]([O-])c1ccc(Sc2nnc(-c3ccc(Cl)cc3)n2-c2ccccc2)nc1 [MIND4-17-33],–,7.5 µM,0.3 µM,Effect of GSH pre-incubation on NQO1 inducer potency [2]: significantly affected by pre-incubation with GSH; CD value (Concentration which Doubles the specific activity of NQO1) [2]: 0.3 µM; Induction of NRF2-responsive proteins NQO1 and GCLM [4]: potent induction of NQO1 protein
c1ccc(CSc2nnc(COc3ccccc3)n2-c2ccccc2)cc1 [MIND4-19],7 µM,–,–,–
"COC(=O)/C=C/C(=O)OC [dimethyl fumarate, reference compound]",–,–,–,CD value (Concentration which Doubles the specific activity of NQO1) [2]: 9 µM; Induction of NRF2-responsive proteins NQO1 and GCLM [4]: dose-dependent induction of NQO1 protein
c1ccc(CSc2nnc(COc3cccc4ccccc34)n2-c2ccccc2)cc1 [MIND4-11],4.5 µM,4.5 µM,> 10 µM,–
Clc1ccc(-n2c(COc3cccc4ccccc34)nnc2SCc2ccccc2)cc1 [MIND4-2],12 µM,–,–,–
c1ccc(CSc2nnc(COc3cccc4cccnc34)n2-c2ccccc2)cc1 [MIND4-12],9 µM,–,–,–
"O=C(CCCCCCC(=O)Nc1ccc([C@H]2O[C@@H](CSc3nc(-c4ccccc4)c(-c4ccccc4)o3)C[C@@H](c3ccc(CO)cc3)O2)cc1)NO [tubacin, reference compound]",–,–,–,α-Tubulin acetylation [5]: significantly increased α-tubulin acetylation
Cn1cnnc1Sc1ccc([N+](=O)[O-])c2cccnc12 [MIND4B],–,> 50 µM,2 µM,–
COc1ccc(CSc2nnc(COc3cccc4ccccc34)n2Cc2ccccc2)cc1 [MIND4-23],9 µM,–,–,–
O=[N+]([O-])c1ccc(Sc2nnc(COc3ccccc3)n2-c2ccccc2)c2cccnc12 [MIND4C],–,> 20 µM,5 µM,Induction of NRF2-responsive proteins NQO1 and GCLM [4]: weaker activation; Accumulation of total NRF2 protein [3]: to much lesser extent
O=[N+]([O-])c1ccc(Sc2nnc(COc3ccccc3)[nH]2)nc1 [MIND4-17-3],–,> 50 µM,7.5 µM,–
Brc1cccc(CSc2nnc(COc3ccccc3)n2-c2ccccc2)c1 [MIND4-20],5 µM,–,–,–
O=[N+]([O-])c1cnc(Sc2nnc(-c3ccc(Cl)cc3)n2-c2ccccc2)c(Br)c1 [MIND4-17-56],–,0.75 µM,2.5 µM,Effect of GSH pre-incubation on NQO1 inducer potency [2]: much more modest; CD value (Concentration which Doubles the specific activity of NQO1) [2]: 2.5 µM; Induction of NRF2-responsive proteins NQO1 and GCLM [4]: lower potency in its ability to induce NQO1
